ChEMBL document CHEMBL4373714, “Absolute Configuration and Biological Activities of Meroterpenoids from an Endophytic Fungus of Lycium barbarum” (J Nat Prod, 2019)
In brackets after ≈: the same amount, converted by molar mass. Where a name gives a salt, the structure may show the parent alone.

How the values were obtained:
NCI-H226 [1] = assay: Antiproliferative activity against human NCI-H226 cells assessed as reduction in cell viability at 10 uM after 24 hrs by CCK8 assay relative to control; assay type: functional; conditions: NCI-H226, 24 h
MDA-MB-231 [2] = assay: Antiproliferative activity against human MDA-MB-231 cells assessed as reduction in cell viability at 10 uM after 24 hrs by CCK8 assay relative to control; assay type: functional; conditions: MDA-MB-231, 24 h
NCI-H226 [3] = assay: Antiproliferative activity against human NCI-H226 cells assessed as reduction in cell viability after 24 hrs by CCK8 assay; assay type: functional, cell-based; conditions: NCI-H226, 24 h
MDA-MB-231 [4] = assay: Antiproliferative activity against human MDA-MB-231 cells assessed as reduction in cell viability after 24 hrs by CCK8 assay; assay type: functional, cell-based; conditions: MDA-MB-231, 24 h
Bacillus subtilis = assay: Antibacterial activity against Bacillus subtilis assessed as inhibition of bacterial growth after 24 hrs by microdilution method; assay type: functional
Clostridium perfringens = assay: Antibacterial activity against Clostridium perfringens assessed as inhibition of bacterial growth after 24 hrs by microdilution method; assay type: functional
Pseudomonas viridiflava = assay: Antibacterial activity against Pseudomonas viridiflava assessed as inhibition of bacterial growth after 24 hrs by microdilution method; assay type: functional
Escherichia coli = assay: Antibacterial activity against Escherichia coli assessed as inhibition of bacterial growth after 24 hrs by microdilution method; assay type: functional
Staphylococcus aureus = assay: Antibacterial activity against Staphylococcus aureus assessed as inhibition of bacterial growth after 24 hrs by microdilution method; assay type: functional

| Compound | inhibition at 10 µM (NCI-H226 [1]) [%] | inhibition at 10 µM (MDA-MB-231 [2]) [%] | IC50 (NCI-H226 [3]) [µM] | IC50 (MDA-MB-231 [4]) [µM] | further results |
| --- | --- | --- | --- | --- | --- |
| CC[C@H](C)C(=O)[C@@H](C)C1=C(OC)C(=O)C2=C(O[C@]3(C)CC[C@H]4O[C@@H](C(C)(C)O)CC[C@]4(C)[C@H]3C2)C1=O | < 50 | < 50 | – | – | – |
| CC[C@H](C)C(=O)[C@@H](C)C1=C(OC)C(=O)C2=C(O[C@]3(C)CC[C@H]4O[C@@H](C(C)(C)O)CC[C@]4(C)[C@H]3[C@@H]2O)C1=O | – | – | > 10 | 9.5 | – |
| C/C=C(\C)C(=O)[C@@H](C)c1cc(O)c2c(c1O)O[C@]1(C)CC[C@H]3O[C@@H](C(C)(C)O)CC[C@]3(C)[C@H]1[C@@H]2O | – | – | 5.5 | 6.7 | – |
| CC[C@H](C)C(=O)[C@@H](C)c1cc(O)c2c(c1O)O[C@]1(C)CC[C@H]3O[C@@H](C(C)(C)O)CC[C@]3(C)[C@H]1[C@@H]2O | < 50 | < 50 | – | – | – |
| CC[C@@H](C)C(=O)[C@@H](C)c1cc(O)c2c(c1O)O[C@]1(C)CC[C@H]3O[C@@H](C(C)(C)O)CC[C@]3(C)[C@H]1C2=O | < 50 | < 50 | – | – | – |
| C/C=C(\C)[C@@H](OC(C)=O)[C@@H](C)C1=CC(=O)C2=C(O[C@]3(C)CC[C@H]4O[C@@H](C(C)(C)O)CC[C@]4(C)C3=C2)C1=O | – | – | > 10 | 5.6 | – |
| CCC(C)C(=O)c1coc2c3c(c(O)cc12)[C@@H](O)[C@@H]1[C@@]2(C)CC[C@H](C(C)(C)O)O[C@@H]2CC[C@@]1(C)O3 (stereo not given in full) | < 50 | < 50 | – | – | – |
| CC[C@@H](C)[C@@H](OC(C)=O)[C@@H](C)c1cc(O)c2c(c1O)O[C@]1(C)CC[C@H]3O[C@@H](C(C)(C)O)CC[C@]3(C)[C@H]1C2=O | < 50 | < 50 | – | – | – |
| C/C=C(\C)C(=O)[C@@H](C)C1=C(OC)C(=O)C2=C(O[C@]3(C)CC[C@H]4O[C@@H](C(C)(C)O)CC[C@]4(C)[C@H]3[C@@H]2O)C1=O | – | – | > 10 | 7.5 | – |
| CC[C@H](C)[C@@H](OC(C)=O)[C@@H](C)C1=C(N)C(=O)C2=C(O[C@]3(C)CC[C@H]4O[C@@H](C(C)(C)O)CC[C@]4(C)[C@H]3[C@@H]2O)C1=O | < 50 | < 50 | – | – | – |
| C/C=C(\C)C(=O)[C@@H](C)C1=CC(=O)C2=C(O[C@]3(C)CC[C@H]4O[C@@H](C(C)(C)O)CC[C@]4(C)[C@H]3[C@@H]2O)C1=O | – | – | > 10 | 8.5 | – |
| CC[C@H](C)[C@@H](OC(C)=O)[C@@H](C)C1=CC(=O)C2=C(O[C@]3(C)CC[C@H]4O[C@@H](C(C)(C)O)CC[C@]4(C)[C@H]3[C@@H]2O)C1=O [COCHLIOQUINONE A] | < 50 | < 50 | – | – | – |
| CC[C@H](C)C(=O)[C@@H](C)C1=CC(=O)C2=C(O[C@]3(C)CC[C@H]4O[C@@H](C(C)(C)O)CC[C@]4(C)[C@H]3C2)C1=O [COCHLIOQUINONE B] | < 50 | < 50 | – | – | MIC (Bacillus subtilis): 26 µM (≈ 12.3 µg/mL); MIC (Clostridium perfringens): 26 µM (≈ 12.3 µg/mL); MIC (Pseudomonas viridiflava): 26 µM (≈ 12.3 µg/mL) |
| CC[C@H](C)C(=O)[C@@H](C)C1=CC(=O)C2=C(O[C@]3(C)CC[C@H]4O[C@@H](C(C)(C)O)CC[C@]4(C)[C@H]3[C@@H]2O)C1=O [COCHLIOQUINONE C] | < 50 | < 50 | – | – | MIC (Bacillus subtilis): 26 µM (≈ 12.7 µg/mL); MIC (Clostridium perfringens): 26 µM (≈ 12.7 µg/mL); MIC (Pseudomonas viridiflava): 26 µM (≈ 12.7 µg/mL) |
| C/C=C(\C)C(=O)[C@@H](C)C1=CC(=O)C2=C(O[C@]3(C)CC[C@H]4O[C@@H](C(C)(C)O)CC[C@]4(C)[C@H]3C2)C1=O [COCHLIOQUINONE D] | – | – | 6.9 | 7.1 | – |
| COc1cccc2c1C(=O)c1c(O)c3c(c(O)c1C2=O)C[C@@](O)(C(=O)CO)C[C@@H]3O[C@H]1C[C@H](N)[C@H](O)[C@H](C)O1 [DOXORUBICIN HYDROCHLORIDE] | – | – | 0.3 | 0.3 | – |
| CC[C@H](C)[C@@H](OC(C)=O)[C@@H](C)c1cc(O)c2c(c1O)O[C@]1(C)CC[C@H]3O[C@@H](C(C)(C)O)CC[C@]3(C)[C@H]1C2=O [ISOCOCHLIOQUINONE A] | < 50 | < 50 | – | – | – |
| CC[C@H](C)C(=O)[C@@H](C)c1cc(O)c2c(c1O)O[C@]1(C)CC[C@H]3O[C@@H](C(C)(C)O)CC[C@]3(C)[C@H]1C2=O [ISOCOCHLIOQUINONE C] | < 50 | < 50 | – | – | MIC (Bacillus subtilis): 26 µM (≈ 12.7 µg/mL); MIC (Clostridium perfringens): 26 µM (≈ 12.7 µg/mL); MIC (Pseudomonas viridiflava): 26 µM (≈ 12.7 µg/mL) |
| CN(C)[C@@H]1C(O)=C(C(N)=O)C(=O)[C@@]2(O)C(O)=C3C(=O)c4c(O)cccc4[C@@](C)(O)[C@H]3C[C@@H]12 [TETRACYCLINE] | – | – | – | – | MIC (Bacillus subtilis): 3.5 µM (≈ 1.56 µg/mL); MIC (Clostridium perfringens): 3.5 µM (≈ 1.56 µg/mL); MIC (Pseudomonas viridiflava): 3.5 µM (≈ 1.56 µg/mL); MIC (Escherichia coli): 3.5 µM (≈ 1.56 µg/mL); MIC (Staphylococcus aureus): 3.5 µM (≈ 1.56 µg/mL) |
